Source: patent publication US20050074879A1, “Antisense oligonucleotide modulation of STAT3 expression” (priority 2000, published 2005)
Oligonucleotides are written 5' to 3', each unit as a sugar letter and its base; * is a phosphorothioate linkage, no mark a phosphodiester; rarer units and linkages stand in square brackets, end groups in braces. Plain capitals give the bases only. e = 2'-O-(2-methoxyethyl) (MOE); [5mC] = 5-methylcytosine; d = 2'-deoxy (DNA)

System: Human STAT3 mRNA
Test: Inhibition of human STAT3 mRNA levels in A549 cells, 75 nM, real-time PCR (Table 13)
Type: cell-based
Details: 75 nM oligonucleotide with LIPOFECTIN, real-time PCR PPS 199, percent inhibition relative to untreated control cells, average of 2 experiments
Description: Oligonucleotide activity is assayed by quantitation of STAT3 mRNA levels by real-time PCR (RT-PCR) using the ABI PRISMS 7700 Sequence Detection System (PE-Applied Biosystems, Foster City, Calif.) according to manufacturer's instructions. This is a closed-tube, non-gel-based, fluorescence detection system which allows high-throughput quantitation of polymerase chain reaction (PCR) products in real-time. As opposed to standard PCR, in which amplification products are quantitated after the PCR is completed, products in RT-PCR are quantitated as they accumulate. This is accomplished by including in the PCR reaction an oligonucleotide probe that anneals specifically between the forward and reverse PCR primers, and contains two fluorescent dyes. A reporter dye (e.g., JOE or FAM, PE-Applied Biosystems, Foster City, Calif.) is attached to the 5′ end of the probe and a quencher dye (e.g., TAMRA, PE-Applied Biosystems, Foster City, Calif.) is attached to the 3′ end of the probe. When the probe and dyes are intact, reporter dye emission is quenched by the proximity of the 3′ quencher dye. During amplification, annealing of the probe to the target sequence creates a substrate that can be cleaved by the 5′-exonuclease activity of Taq polymerase. […] With each cycle, additional reporter dye molecules are cleaved from their respective probes, and the fluorescence intensity is monitored at regular (six-second) intervals by laser optics built into the ABI PRISM™ 7700 Sequence Detection System. In each assay, a series of parallel reactions containing serial dilutions of mRNA from untreated control samples generates a standard curve that is used to quantitate the percent inhibition after antisense oligonucleotide treatment of test samples.
RT-PCR reagents are obtained from PE-Applied Biosystems, Foster City, Calif. RT-PCR reactions are carried out by adding 25 l PCR cocktail (1× TAQMAN7 buffer A, 5.5 mM MgCl2, 300 µM each of DATP, dCTP and dGTP, 600 µM of dUTP, 100 nM each of forward primer, reverse primer, and probe, 20 U RNAse inhibitor, 1.25 units AMPLITAQ GOLD7, and 12.5 U MuLV reverse transcriptase) to 96 well plates containing 25 l poly(A) mRNA solution. The RT reaction is carried out by incubation for 30 minutes at 48° C. following a 10 minute incubation at 95° C. to activate the AMPLITAQ GOLD7, 40 cycles of a two-step PCR protocol are carried out: 95° C. for 15 seconds (denaturation) followed by 60° C. for 1.5 minutes (annealing/extension).
The compounds were analyzed for their effect on STAT3 mRNA levels in A549 cells. The human lung carcinoma cell line A549 was obtained from the American Type Culture Collection (ATCC) (Manassas, Va.). A549 cells were routinely cultured in DMEM basal media (Invitrogen Corporation, Carlsbad, Calif.) supplemented with 10% fetal calf serum (Invitrogen Corporation, Carlsbad, Calif.), 100 units/mL penicillin, and 100 ug/mL streptomycin (Invitrogen Corporation, Carlsbad, Calif.). Cells were routinely passaged by trypsinization and dilution when they reached 90% confluence.
When cells reached 65-75% confluency, they were treated with oligonucleotide. For cells grown in 96-well plates, wells were washed once with […] OPTI-MEM-1 reduced-serum medium (Invitrogen Corporation, Carlsbad, Calif.) and then treated with 130 µL of OPTI-MEM-1 containing […] LIPOFECTIN (Invitrogen Corporation, Carlsbad, Calif.) and 75 nM of the compounds in Table 13. Cells were treated and data were obtained in duplicate. Untreated cells served as controls. After 4-7 hours of treatment at 37° C., the medium was replaced with fresh medium. Cells were harvested 16-24 hours after oligonucleotide treatment. STAT3 mRNA levels in A549 cells were quantitated by real-time PCR as described by other methods herein.
Probes and primers to human STAT3 were designed to hybridize to a human STAT3 sequence, using published sequence information (incorporated herein as SEQ ID NO: 1). For STAT 3 the PCR primers were: • forward primer: […]

Compared with “337267 (antisense eA*eG*eA*eA*eA*d[5mC]*dT*dG*d[5mC]*dT*dT*dG*dA*dT*dT*e[5mC]*eT*eT*e[5mC]*eG) [compound 337267]”, “337383 (antisense eT*eA*eA*eA*eA*dA*dG*dA*dA*dA*d[5mC]*d[5mC]*dT*dA*dG*eG*eG*e[5mC]*eT*eT) [compound 337383]” is higher in “% Inhib (inhibition of human STAT 3 mRNA levels)” value (from here on “% Inhib”): 62% for the first, 81% for the second.

First: 337339 (antisense eA*eG*e[5mC]*eA*eA*dA*dT*dG*dA*d[5mC]*dA*dT*dG*dT*dT*eG*eT*eT*e[5mC]*eA) [compound 337339]
Second: 337356 (antisense eA*eT*eG*eG*eT*dA*dT*dT*dG*d[5mC]*dT*dG*d[5mC]*dA*dG*eG*eT*e[5mC]*eG*eT) [compound 337356]
The “% Inhib” value of the first is higher: 84% for the first, 75% for the second.

First: 337250 (antisense eA*eT*eT*e[5mC]*eA*d[5mC]*dT*dT*dG*d[5mC]*d[5mC]*dT*d[5mC]*d[5mC]*dT*eT*eG*eA*e[5mC]*eT) [compound 337250]
Second: 337277 (antisense eA*eA*eG*eT*e[5mC]*dA*dT*d[5mC]*d[5mC]*dT*dG*dG*dA*dG*dA*eT*eT*e[5mC]*eT*e[5mC]) [compound 337277]
The “% Inhib” value of the first is lower: 51% for the first, 79% for the second.

Going from “337326 (antisense eG*eT*e[5mC]*eA*eG*d[5mC]*dT*dG*d[5mC]*dT*d[5mC]*dG*dA*dT*dG*e[5mC]*eT*e[5mC]*eA*eG) [compound 337326]” to “337330 (antisense eG*e[5mC]*e[5mC]*eA*eT*dG*dT*dT*dT*dT*d[5mC]*dT*dT*dT*dG*e[5mC]*eA*eA*eA*eA) [compound 337330]”, the “% Inhib” value falls from 78% to 59%.

Going from “337309 (antisense eA*eG*eA*eG*eG*d[5mC]*dT*dG*d[5mC]*d[5mC]*dG*dT*dT*dG*dT*eT*eG*eG*eA*eT) [compound 337309]” to “337329 (antisense eT*eA*eG*e[5mC]*e[5mC]*d[5mC]*dA*dT*dG*dT*dG*dA*dT*d[5mC]*dT*eG*eA*e[5mC]*eA*e[5mC]) [compound 337329]”, the “% Inhib” value rises from 73% to 88%.

Going from “337245 (antisense eA*eG*e[5mC]*e[5mC]*eT*d[5mC]*dT*dG*d[5mC]*dA*d[5mC]*d[5mC]*d[5mC]*dT*d[5mC]*eA*eT*eG*eT*eT) [compound 337245]” to “337338 (antisense eA*eT*eG*eA*e[5mC]*dA*dT*dG*dT*dT*dG*dT*dT*d[5mC]*dA*eG*e[5mC]*eT*eG*e[5mC]) [compound 337338]”, the “% Inhib” value rises from 77% to 80%.

First: 337377 (antisense eG*e[5mC]*eT*eT*eA*d[5mC]*dA*dG*dA*dA*dA*d[5mC]*dA*dG*dG*e[5mC]*eA*eG*eA*eA) [compound 337377]
Second: 337257 (antisense eG*eG*e[5mC]*eG*eG*d[5mC]*dG*dA*dG*dG*d[5mC]*dT*d[5mC]*d[5mC]*d[5mC]*eT*e[5mC]*eA*eG*eG) [compound 337257]
The “% Inhib” value of the first is lower: 78% for the first, 80% for the second.

First: 337360 (antisense eT*eG*e[5mC]*eA*eT*d[5mC]*dA*dA*dT*dG*dA*dA*dT*d[5mC]*dT*eA*eA*eA*eG*eT) [compound 337360]
Second: 337287 (antisense eT*eG*eG*eT*eT*dG*dT*dT*dT*d[5mC]*d[5mC]*dA*dT*dT*d[5mC]*eA*eG*eA*eT*e[5mC]) [compound 337287]
The “% Inhib” value of the first is lower: 71% for the first, 82% for the second.

Compared with “337268 (antisense eG*eA*eT*eA*e[5mC]*d[5mC]*dT*dG*d[5mC]*dT*d[5mC]*dT*dG*dA*dA*eG*eA*eA*eA*e[5mC]) [compound 337268]”, “337273 (antisense e[5mC]*e[5mC]*eA*eG*e[5mC]*dA*dT*d[5mC]*dT*dG*d[5mC]*dT*dG*d[5mC]*dT*eT*e[5mC]*eT*e[5mC]*e[5mC]) [compound 337273]” is lower in “% Inhib” value: 75% for the first, 73% for the second.

First: 337314 (antisense e[5mC]*eT*e[5mC]*eA*eA*dA*dG*dG*dT*dG*dA*dT*d[5mC]*dA*dG*eG*eT*eG*e[5mC]*eA) [compound 337314]
Second: 337331 (antisense e[5mC]*e[5mC]*eT*eT*eG*d[5mC]*d[5mC]*dA*dG*d[5mC]*d[5mC]*dA*dT*dG*dT*eT*eT*eT*e[5mC]*eT) [compound 337331]
The “% Inhib” value of the first is lower: 75% for the first, 88% for the second.

First: 337271 (antisense eG*eT*eG*eA*eT*dT*d[5mC]*dT*dT*d[5mC]*d[5mC]*d[5mC]*dA*d[5mC]*dA*eG*eG*e[5mC]*eA*e[5mC]) [compound 337271]
Second: 337374 (antisense eA*eG*eA*e[5mC]*eA*dT*dT*dT*d[5mC]*d[5mC]*dT*dT*dT*dT*dT*e[5mC]*eT*e[5mC]*e[5mC]*e[5mC]) [compound 337374]
The “% Inhib” value of the first is higher: 85% for the first, 67% for the second.

Compared with “337345 (antisense eG*eG*eT*eA*eG*d[5mC]*dA*dT*d[5mC]*d[5mC]*dA*dT*dG*dA*dT*e[5mC]*eT*eT*eA*eT) [compound 337345]”, “337246 (antisense e[5mC]*eT*e[5mC]*e[5mC]*eT*dA*dA*dA*dT*dT*dA*dA*dG*dA*dA*e[5mC]*eT*eT*e[5mC]*eT) [compound 337246]” is lower in “% Inhib” value: 86% for the first, 37% for the second.

Compared with “337318 (antisense eG*eG*eT*e[5mC]*eT*d[5mC]*dT*dA*dG*dG*dT*d[5mC]*dA*dA*dT*e[5mC]*eT*eT*eG*eA) [compound 337318]”, “337380 (antisense eG*e[5mC]*eA*eA*eT*dG*d[5mC]*d[5mC]*dA*dG*dG*dA*dG*dT*dA*eT*eG*eT*eA*eG) [compound 337380]” is higher in “% Inhib” value: 74% for the first, 83% for the second.

Going from “337288 (antisense eT*eG*eG*eT*e[5mC]*dA*d[5mC]*dT*dG*dA*d[5mC]*dT*dG*dG*dT*eT*eG*eT*eT*eT) [compound 337288]” to “337321 (antisense eA*e[5mC]*e[5mC]*eA*e[5mC]*dA*dA*d[5mC]*dT*dG*dG*d[5mC]*dA*dA*dG*eG*eA*eG*eT*eG) [compound 337321]”, the “% Inhib” value falls from 84% to 80%.

Compared with “337342 (antisense eT*eT*eA*eT*eA*dG*d[5mC]*d[5mC]*d[5mC]*dA*dT*dG*dA*dT*dG*eA*eT*eT*eT*e[5mC]) [compound 337342]”, “337363 (antisense eA*eA*e[5mC]*eT*eG*d[5mC]*d[5mC]*d[5mC]*dT*d[5mC]*d[5mC]*dT*dG*d[5mC]*dT*eG*eA*eG*eG*eG) [compound 337363]” is lower in “% Inhib” value: 81% for the first, 63% for the second.

First: 337367 (antisense eA*eA*eA*eG*eT*dG*d[5mC]*d[5mC]*d[5mC]*dA*dG*dA*dT*dT*dG*e[5mC]*eT*e[5mC]*eA*eA) [compound 337367]
Second: 337358 (antisense eG*eA*e[5mC]*eA*eT*d[5mC]*dG*dG*d[5mC]*dA*dG*dG*dT*d[5mC]*dA*eA*eT*eG*eG*eT) [compound 337358]
The “% Inhib” value of the first is higher: 82% for the first, 77% for the second.

First: 337381 (antisense eT*eT*eA*eA*eA*dA*dA*dG*dT*dG*d[5mC]*dA*dA*dT*dG*e[5mC]*e[5mC]*eA*eG*eG) [compound 337381]
Second: 337266 (antisense eT*e[5mC]*eG*eT*eA*dG*dA*dT*dT*dG*dT*dG*d[5mC]*dT*dG*eA*eT*eA*eG*eA) [compound 337266]
The “% Inhib” value of the first is higher: 86% for the first, 61% for the second.
